# Measured values as given in patent US20210170122A1, “METHOD OF WEIGHT REGULATION USING NEBULIZED NICOTINE” (priority 2016, published 2021).
# Legend:
# [1] = Description: The nicotine solution used for nicotine treatment contains 0.05 milligram of nicotine (free base) per milliliter of solution ([…]). The active mesh nebulizer activates the active mesh for a single inhalation period of 3 seconds (0.05 minute) to deliver the dose of nicotine to the patient.
# The nicotine solution used for nicotine treatment contains 0.5 milligram of nicotine (free base) per milliliter of solution (0.5 mg/ml). The active mesh nebulizer activates the active mesh for a single inhalation period of 3 seconds (0.05 minute) to deliver the dose of nicotine to the patient.
# The nicotine solution used for nicotine treatment contains 0.01 milligram of nicotine (free base) per milliliter of solution (0.01 mg/ml). The active mesh nebulizer activates the active mesh for a single inhalation period of 3 seconds (0.05 minute) to deliver the dose of nicotine to the patient.
# The hypothetical patient receives the nicotine dose at a regular interval (e.g., about every 2 hours) for a weight monitoring period (e.g., about 2 months in the present hypothetical example), after which the hypothetical patient is weighed to determine the effect of the nebulized nicotine solution on the hypothetical patient's weight.
# Remark: listed apart in the source
smiles,measurement,setting,value
CN1CCCC1c1cccnc1 (stereo not shown) [nicotine],management of nicotine cravings,"[1]; Example 1: patient, 2-pack per day smoker, 0.0005 mg dose (0.2 ml/min, 0.05 mg/ml, 3 seconds) by inhalation approximately every two hours",sufficient to manage nicotine cravings
same,patient's weight versus weight when smoking cigarettes,"[1]; Example 1: patient, 2-pack per day smoker, 0.0005 mg dose by inhalation approximately every two hours",holding the patient's weight at the same level as when the patient was smoking cigarettes
same,"lethargy, or lassitude","[1]; Example 2: patient, 2-pack per day smoker, 0.005 mg dose (0.2 ml/min, 0.5 mg/ml, 3 seconds) by inhalation","sufficiently large to produce lethargy, or lassitude"
same,effect on patient's weight,"[1]; Example 3: hypothetical patient, 0.01 mg/ml solution, 0.2 ml/min, 3 seconds, about every 2 hours for about 2 months",has lost weight
same,period with no desire for further nicotine inhalation,"0.5 mg nicotine/ml (0.05%), single inhalation plume, 0.2 ml/minute for 10 seconds, according to theory and belief",2 to 3 h
same,period of nicotine satiety (no desire for further nicotine inhalation),"1/40 mg nicotine/ml (0.025% nicotine), 0.2 ml/min, nebulization time 10 seconds, according to theory and belief",at least two hours
same,time to brain response,in vivo,less than 10 seconds
